Results as given in patent publication US10662221B2, “Cystargolide compounds and uses thereof” (UNIVERSITY OF PRINCE EDWARD ISLAND, priority 2015, dated 2020).
Where “and” joins values, the source holds several entries; their conditions need not be identical. Equal values may be shown once.

How the values were obtained:
human 20S proteasome = target: T1, human 20S proteasome (Homo sapiens, UniProt P28074); experiment: 20S proteasome inhibition assay (chymotrypsin-like activity, Suc-LLVY-AMC cleavage); format: biochemical; settings: purified human erythrocyte 20S proteasome 3 μg/mL, Suc-LLVY-AMC 75 μM, 30° C., 10 min preincubation, triplicate ± SD
T1 construct: purified human erythrocyte 20S proteasome; purchased Enzo Life Sciences BML-PW8720-0020; host or cells: purified from human erythrocytes (native tissue material)

rabbit 20S proteasome = settings: read-out: IC50, inhibition of chymotrypsin-like activity of the rabbit 20S proteasome; cited from earlier work
[1] = Stability in mild acidic conditions; format: physicochemical; settings: resulting in polymerization
Excerpt: The fifth degree of unsaturation was attributed to cyclization. Two options were therefore available; a macrolactone cyclization between C-1 and the C-2″ hydroxyl, or a β-lactone between C-4″ and the C-2″ hydroxyl. The presence of IR absorption at 1835 cm^−1 was characteristic of a β-lactone carbonyl stretching band and therefore strongly supports cyclization between C-4″ and the hydroxyl at C-2″. The lack of HMBC correlation between H-2″ and C-1 also supported a β-lactone cyclization. The presence of the β-lactone was further confirmed by the instability of 1 in mild acidic conditions resulting in polymerization. The relative configuration at the C-2″ and C-3″ positions on the β-lactone moiety was determined from an analysis of the ^3JHH values.

IC50 (human 20S proteasome) | stability in mild acidic conditions [1] | Compound | IC50 (rabbit 20S proteasome)
930 nM | – | CC(C)C1C(=O)OC1C(=O)N[C@H](C(=O)N[C@H](C(=O)O)C(C)C)C(C)C (some centres unmarked) [Compound 2, Cystargolide B] | –
– | – | belactosin A | 210 nM
360 nM and 350 nM | instability | CCC(C)[C@H](NC(=O)[C@@H](NC(=O)C1OC(=O)C1C(C)C)C(C)C)C(=O)O (some centres unmarked) [Compound 1, Cystargolide A] | –
– | – | belactosin C | 210 nM
